Literature values as cited in patent US8685965B2, “CGRP receptor antagonists” (Merck Sharp & Dohme Corp., priority 2008, dated 2014).
Ends that are not written are not given here.

Columns and labels:
[1] = tested on: acute attacks of migraine; settings: clinical trials; Olesen et al. 2004
[2] = tested on: headache induced by CGRP infusion; settings: control group; Petersen et al. 2005
facial blood flow [3] = settings: marmoset; Doods et al. 2000
middle meningeal artery = settings: rats, prior administration; Williamson et al. 1997
facial blood flow [4] = settings: rat; Escott et al. 1995

Row | Compound | efficacy in treating acute attacks of migraine [1] | prevention of headache induced by CGRP infusion [2] | effect on increase of facial blood flow after electrical stimulation of the trigeminal ganglion (facial blood flow [3]) | effect on increase of middle meningeal artery diameter after electrical stimulation of the dura mater (middle meningeal artery) | effect on increase of facial blood flow after trigeminal ganglion stimulation (facial blood flow [4])
1 | NCCCC[C@H](NC(=O)[C@@H](Cc1cc(Br)c(O)c(Br)c1)NC(=O)N1CCC(N2Cc3ccccc3NC2=O)CC1)C(=O)N1CCN(c2ccncc2)CC1 [BIBN4096BS] | effective in treating acute attacks of migraine | able to prevent headache induced by CGRP infusion | could be blocked | – | –
2 | CGRP(8-37): a peptide CGRP antagonist; fragment of CGRP that lacks seven N-terminal amino acid residues (VTHRLAGLLSRSGGVVKNNFVPTNVGSKAF; ends and bridges not checked; UniProt P06881 90-119, looked up, fragment) | – | – | – | blocked | inhibited
